Source: patent publication US20160009693A1, “HERBICIDAL COMPOUNDS” (SYNGENTA LIMITED, priority 2013, published 2016)

Legend:
Type in all cases: in vivo
Settings in all cases: applied at 1000 g/h, evaluated after 13 days
[1] = tested on: Echinochloa crus-galli (ECHCG); experiment: Herbicidal glasshouse test, post-emergence, ECHCG
Procedure: (§1) Seeds of a variety of test species are sown in standard soil in pots (Alopecurus myosuroides (ALOMY), Setaria faberi (SETFA), Echinochloa crus-galli (ECHCG), Solanum nigrum (SOLNI), Amaranthus retoflexus (AMARE), Ipomoea hederacea (IPOHE)). After cultivation for one day (pre-emergence) or after 8 days cultivation (post-emergence) under controlled conditions in a glasshouse (at 24/16° C., day/night; 14 hours light; 65% humidity), the plants are sprayed with an aqueous spray solution derived from the formulation of the technical active ingredient in acetone / water (50:50) solution containing 0.5% Tween 20 (polyoxyethelyene sorbitan monolaurate, CAS RN 9005-64-5). […] The test plants are then grown in a glasshouse under controlled conditions in a glasshouse (at 24/16° C., day/night; 14 hours light; 65% humidity) and watered twice daily. After 13 days for pre and post-emergence, the test is evaluated for the percentage damage caused to the plant. The biological activities are shown in the following table on a five point scale (5=80-100%; 4=60-79%; 3=40-59%; 2=20-39%; 1=0-19%).

Solanum nigrum (SOLNI) [2] = experiment: Herbicidal glasshouse test, post-emergence, SOLNI
Procedure: as §1

[3] = tested on: Ipomoea hederacea (IPOHE); experiment: Herbicidal glasshouse test, pre-emergence, IPOHE
Procedure: as §1

[4] = tested on: Ipomoea hederacea (IPOHE); experiment: Herbicidal glasshouse test, post-emergence, IPOHE
Procedure: as §1

Setaria faberi (SETFA) [5] = experiment: Herbicidal glasshouse test, pre-emergence, SETFA
Procedure: as §1

[6] = tested on: Alopecurus myosuroides (ALOMY); experiment: Herbicidal glasshouse test, pre-emergence, ALOMY
Procedure: as §1

[7] = tested on: Amaranthus retoflexus (AMARE); experiment: Herbicidal glasshouse test, post-emergence, AMARE
Procedure: as §1

Solanum nigrum (SOLNI) [8] = experiment: Herbicidal glasshouse test, pre-emergence, SOLNI
Procedure: as §1

Setaria faberi (SETFA) [9] = experiment: Herbicidal glasshouse test, post-emergence, SETFA
Procedure: as §1

[10] = tested on: Amaranthus retoflexus (AMARE); experiment: Herbicidal glasshouse test, pre-emergence, AMARE
Procedure: as §1

[11] = tested on: Alopecurus myosuroides (ALOMY); experiment: Herbicidal glasshouse test, post-emergence, ALOMY
Procedure: as §1

[12] = tested on: Echinochloa crus-galli (ECHCG); experiment: Herbicidal glasshouse test, pre-emergence, ECHCG
Procedure: as §1

Cn1nnnc1NC(=O)c1nn(C)c(=O)n(-c2ccccc2F)c1=O [Compound 1.020]
5 (5=80-100%): POST Application ECHCG, percentage damage (five point scale) [1] | POST Application SOLNI, percentage damage (five point scale) (Solanum nigrum (SOLNI) [2]) | PRE Application IPOHE, percentage damage (five point scale) [3] | POST Application IPOHE, percentage damage (five point scale) [4] | PRE Application SETFA, percentage damage (five point scale) (Setaria faberi (SETFA) [5]) | PRE Application ALOMY, percentage damage (five point scale) [6] | POST Application AMARE, percentage damage (five point scale) [7] | PRE Application SOLNI, percentage damage (five point scale) (Solanum nigrum (SOLNI) [8]) | POST Application SETFA, percentage damage (five point scale) (Setaria faberi (SETFA) [9]) | PRE Application AMARE, percentage damage (five point scale) [10] | POST Application ALOMY, percentage damage (five point scale) [11] | PRE Application ECHCG, percentage damage (five point scale) [12]

CCCCn1c(=O)c(C(=O)Nc2nnnn2C)nn(C)c1=O [Compound 1.001]
5 (5=80-100%): POST Application ECHCG, percentage damage (five point scale) [1] | POST Application SOLNI, percentage damage (five point scale) (Solanum nigrum (SOLNI) [2]) | PRE Application IPOHE, percentage damage (five point scale) [3] | POST Application IPOHE, percentage damage (five point scale) [4] | PRE Application SETFA, percentage damage (five point scale) (Setaria faberi (SETFA) [5]) | PRE Application ALOMY, percentage damage (five point scale) [6] | POST Application AMARE, percentage damage (five point scale) [7] | PRE Application SOLNI, percentage damage (five point scale) (Solanum nigrum (SOLNI) [8]) | POST Application SETFA, percentage damage (five point scale) (Setaria faberi (SETFA) [9]) | PRE Application AMARE, percentage damage (five point scale) [10] | POST Application ALOMY, percentage damage (five point scale) [11] | PRE Application ECHCG, percentage damage (five point scale) [12]

CCCn1nnnc1NC(=O)c1nn(C)c(=O)n(-c2ccc(F)cc2)c1=O [Compound 1.049]
5 (5=80-100%): POST Application ECHCG, percentage damage (five point scale) [1] | POST Application SOLNI, percentage damage (five point scale) (Solanum nigrum (SOLNI) [2]) | PRE Application IPOHE, percentage damage (five point scale) [3] | POST Application IPOHE, percentage damage (five point scale) [4] | PRE Application SETFA, percentage damage (five point scale) (Setaria faberi (SETFA) [5]) | PRE Application ALOMY, percentage damage (five point scale) [6] | POST Application AMARE, percentage damage (five point scale) [7] | PRE Application SOLNI, percentage damage (five point scale) (Solanum nigrum (SOLNI) [8]) | POST Application SETFA, percentage damage (five point scale) (Setaria faberi (SETFA) [9]) | PRE Application AMARE, percentage damage (five point scale) [10] | POST Application ALOMY, percentage damage (five point scale) [11] | PRE Application ECHCG, percentage damage (five point scale) [12]

Cn1nnnc1NC(=O)c1nn(C)c(=O)n(-c2cccc(C(F)(F)F)c2)c1=O [Compound 1.028]
5 (5=80-100%): POST Application ECHCG, percentage damage (five point scale) [1] | POST Application SOLNI, percentage damage (five point scale) (Solanum nigrum (SOLNI) [2]) | PRE Application IPOHE, percentage damage (five point scale) [3] | POST Application IPOHE, percentage damage (five point scale) [4] | PRE Application SETFA, percentage damage (five point scale) (Setaria faberi (SETFA) [5]) | PRE Application ALOMY, percentage damage (five point scale) [6] | POST Application AMARE, percentage damage (five point scale) [7] | PRE Application SOLNI, percentage damage (five point scale) (Solanum nigrum (SOLNI) [8]) | POST Application SETFA, percentage damage (five point scale) (Setaria faberi (SETFA) [9]) | PRE Application AMARE, percentage damage (five point scale) [10] | POST Application ALOMY, percentage damage (five point scale) [11] | PRE Application ECHCG, percentage damage (five point scale) [12]

Cn1nnnc1NC(=O)c1nn(C)c(=O)n(CC2CC2)c1=O [Compound 1.093]
5 (5=80-100%): POST Application ECHCG, percentage damage (five point scale) [1] | POST Application SOLNI, percentage damage (five point scale) (Solanum nigrum (SOLNI) [2]) | PRE Application IPOHE, percentage damage (five point scale) [3] | POST Application IPOHE, percentage damage (five point scale) [4] | PRE Application SETFA, percentage damage (five point scale) (Setaria faberi (SETFA) [5]) | PRE Application ALOMY, percentage damage (five point scale) [6] | POST Application AMARE, percentage damage (five point scale) [7] | PRE Application SOLNI, percentage damage (five point scale) (Solanum nigrum (SOLNI) [8]) | POST Application SETFA, percentage damage (five point scale) (Setaria faberi (SETFA) [9]) | PRE Application AMARE, percentage damage (five point scale) [10] | POST Application ALOMY, percentage damage (five point scale) [11] | PRE Application ECHCG, percentage damage (five point scale) [12]
